Source: patent US9573939B2, “Substituted benzofuran compounds and methods of use thereof for the treatment of viral diseases” (priority 2011, dated 2017)

Assays:
HCV replicon genotype 1a = test: microbe, parasite or virus in culture; format: cell-based; conditions: Hepatitis C virus; HCV genotype 1a replicon cells; 96 hours incubation; replicon-encoded NS3/4A protein by ELISA; percentage of DMSO control
HCV replicon genotype 1b = test: microbe, parasite or virus in culture; format: cell-based; conditions: Hepatitis C virus; HCV genotype 1b replicon cells; 96 hours incubation; replicon-encoded NS3/4A protein by ELISA; percentage of DMSO control

| Structure (SMILES) | IC50 (HCV replicon genotype 1a) [nM] | IC50 (HCV replicon genotype 1b) [nM] |
| --- | --- | --- |
| CNC(=O)c1c(-c2ccc(F)cc2)oc2cc(N(C)S(C)(=O)=O)c(-c3ccc4c(c3)ncn4-c3cccnc3)cc12 [Compound 23] | 24.1 |  |
| CNC(=O)c1c(-c2ccc(F)cc2)oc2cc(N(C)S(C)(=O)=O)c(-c3ccc4ncn(CCO)c4c3)cc12 [Compound 28] | 755 | 75.7 |
| CNC(=O)c1c(-c2ccc(F)cc2)oc2cc(N(C)S(C)(=O)=O)c(-c3ccc4cnn(-c5ccc(Cl)cc5)c4c3)cc12 [Compound 52] | 6 | 6.9 |
| CNC(=O)c1c(-c2ccc(F)cc2)oc2cc(N(C)S(C)(=O)=O)c(-c3ncc4ncn(-c5ccc(C#N)cc5)c4n3)cc12 [Compound 32] | > 1000 |  |
| CNC(=O)c1c(-c2ccc(F)cc2)oc2cc(N(C)S(C)(=O)=O)c(-c3ccc4ncn(-c5ccc(F)cc5)c4c3)cc12 [Compound 15] | 338 | 20.2 |
| CNC(=O)c1c(-c2ccc(F)cc2)oc2cc(N(C)S(C)(=O)=O)c(-c3ccc4c(c3)ncn4-c3ccccc3)cc12 [Compound 22] | 25.3 | 2.9 |
| CNC(=O)c1c(-c2ccc(F)cc2)oc2cc(N(C)S(C)(=O)=O)c(-c3ccc4[nH]c(-c5ccccc5)cc4c3)cc12 [Compound 39] | > 1000 |  |
| CNC(=O)c1c(-c2ccc(F)cc2)oc2cc(N(C)S(C)(=O)=O)c(-c3ncc4ncn(-c5ccc(OC(F)(F)F)cc5)c4n3)cc12 [Compound 29, 2-(4-fluorophenyl)-N-methyl-6-(N-methylmethylsulfonamido)-5-(9-(4-(trifluoromethoxy)phenyl)-9H-purin-2-yl)benzofuran-3-carboxamide] | > 1000 |  |
